The text below walks through data of publication PMC6332200, “Isolation and Identification of Cytotoxic Compounds from Aeschynomene fascicularis, a Mayan Medicinal Plant” (Molecules, 2015).

Series [1] relates to HeLa. As to the kind of experiment: Cytotoxicity MTT assay, HeLa cervix adenocarcinoma. It counts as cell-based, human. To be noted: Homo sapiens; HeLa, MTT, 72 h; read-out: Cytotoxic activity CC50. How it is done:
(§1) Three types of cancer cell lines obtained from the American Type Culture Collection (ATCC) were cultured: two oral-laryngeal cancer cell lines, nasopharynx carcinoma (KB, ATCC-CCL-17) and laryngeal carcinoma (Hep-2, ATCC-CCL-23); two cervix-uterine cancer cell lines, cervix adenocarcinoma (HeLa, ATCC-CCL-2) and cervix squamous carcinoma (SiHa, ATCC-HTB-35); and two prostate cancer cell lines, prostate carcinoma (DU-145, ATCC-HTB-81) and prostate adenocarcinoma (PC-3, ATCC-CRL-1435); along with one normal cell line (MDCK, ATCC-CCL-34). The cells were cultured in sterile Costar T75 flasks containing DMEM (Gibco, Hong Kong, China), supplemented with fetal bovine serum (10%, v/v), 100 U/mL penicillin G, and […] streptomycin at 37 °C in an atmosphere of 5% CO2 (95% humidity). At 70%–80% confluence, cells were detached from the cultured flask by treatment with 0.05% trypsin-EDTA (Gibco), and a suspension of 5 × 10^4 cells/mL of viable cells was seeded in a 96-well microtiter plate (Costar, Washington, DC, USA) and incubated. Cytotoxicity was assessed by the MTT assay as previously described by Rahman. When cells reached 90% confluence in a microtiter plate, the DMEM was replaced with fresh medium and cells were incubated with compounds at various concentrations. […] The medium was aspirated, and the formazan product was solubilized with acidified isopropanol (0.4 N HCl). The amount of MTT-formazan is directly proportional to the number of living cells and was determined by measuring the optical density (OD) at 590 nm using a bioassay reader (Bio-Rad). All determinations were performed in triplicate. The cytotoxic and antiproliferative activities of tested compounds were calculated as the percentage of cells killed or the percentage of inhibition of cell proliferation, respectively, using the equation: growth inhibition (%) = (ODcontrol − ODsample/ODcontrol) × 100. […] In addition, the level of cytotoxicity on normal cells was evaluated by determining the selectivity index (SI) of each compound, which is calculated as the ratio of cytotoxicity or reduced cell growth on normal cells to cancer cells (SI = normal cells/cancer cells).
On the technique in general: Formazan colour is commonly taken as a measure of viable cells.

Series [2] deals with PC-3. Description: Antiproliferative sulforhodamine B assay, PC-3. The series is classed as cell-based. Conditions: Homo sapiens; PC-3, SRB, 48 h. As for the experimental part:
(§2) Three types of cancer cell lines obtained from the American Type Culture Collection (ATCC) were cultured: two oral-laryngeal cancer cell lines, nasopharynx carcinoma (KB, ATCC-CCL-17) and laryngeal carcinoma (Hep-2, ATCC-CCL-23); two cervix-uterine cancer cell lines, cervix adenocarcinoma (HeLa, ATCC-CCL-2) and cervix squamous carcinoma (SiHa, ATCC-HTB-35); and two prostate cancer cell lines, prostate carcinoma (DU-145, ATCC-HTB-81) and prostate adenocarcinoma (PC-3, ATCC-CRL-1435); along with one normal cell line (MDCK, ATCC-CCL-34). The cells were cultured in sterile Costar T75 flasks containing DMEM (Gibco, Hong Kong, China), supplemented with fetal bovine serum (10%, v/v), 100 U/mL penicillin G, and […] streptomycin at 37 °C in an atmosphere of 5% CO2 (95% humidity). At 70%–80% confluence, cells were detached from the cultured flask by treatment with 0.05% trypsin-EDTA (Gibco), and a suspension of 5 × 10^4 cells/mL of viable cells was seeded in a 96-well microtiter plate (Costar, Washington, DC, USA) and incubated.
(§3) The growth inhibition of cancer cells was evaluated by the sulforhodamine B method. When cells reached 70% confluence in a microtiter plate, the medium was replaced with DMEM 5% FBS and samples at various concentrations. After 48 h, the medium was discarded, and cells were fixed by adding 50 μL of 10% trichloroacetic acid (TCA, Sigma-Aldrich Chemical, St. Louis, MO, USA). The cells were then incubated at 4 °C for 30 min; TCA was drained off, and the plates were left to dry. Then, 50 μL of SRB stain (10 mg of 1% acetic acid, Sigma) were added to each well for 30 min. Finally, the plates were washed four times with 1% acetic acid (100 μL). The OD was measured at 540 nm using an ELISA reader (Bio-Rad). Docetaxel was used as a positive control, whereas cells incubated only with 0.05% of DMSO were used as a negative control. All determinations were performed in triplicate.
(§4) The cytotoxic and antiproliferative activities of tested compounds were calculated as the percentage of cells killed or the percentage of inhibition of cell proliferation, respectively, using the equation: growth inhibition (%) = (ODcontrol − ODsample/ODcontrol) × 100. […] In addition, the level of cytotoxicity on normal cells was evaluated by determining the selectivity index (SI) of each compound, which is calculated as the ratio of cytotoxicity or reduced cell growth on normal cells to cancer cells (SI = normal cells/cancer cells). It is generally considered that biological efficacy is not due to general toxicity when SI ≥ 10 [17].

Series [3] relates to Hep-2. Description: Cytotoxicity MTT assay, Hep-2 laryngeal carcinoma. The series is classed as cell-based, human. To be noted: Homo sapiens; Hep-2, MTT, 72 h; read-out: Cytotoxic activity CC50. How it is done: as §1
The test system of another series is MDCK. As to the kind of experiment: Antiproliferative sulforhodamine B assay, MDCK normal cell line. It counts as cell-based. To be noted: Canis lupus familiaris, SRB, 48 h. How it is done:
as §2, §3, §4

Series [4] relates to HeLa. Description: Antiproliferative sulforhodamine B assay, HeLa. The series is classed as cell-based, human. Conditions: Homo sapiens; HeLa, SRB, 48 h. As for the experimental part:
as §2, §3, §4

Series [5] relates to PC-3. Description: Cytotoxicity MTT assay, PC-3 prostate adenocarcinoma. To be noted: Homo sapiens; PC-3, MTT, 72 h; read-out: Cytotoxic activity CC50. It counts as cell-based, human. How it is done:
as §1

For series [6], the system named is KB. As to the kind of experiment: Antiproliferative sulforhodamine B assay, KB. It counts as cell-based, human. To be noted: Homo sapiens; KB, SRB, 48 h. How it is done:
as §2, §3, §4
On the technique in general: The SRB assay estimates cell density from bound dye.

The subject of the next series is tested cell lines. Description: Cytotoxicity and antiproliferative bioassays, whole panel of tested cell lines. It counts as cell-based. To be noted: all tested cell lines. As for the experimental part:
as §2, with “At 70%–80% confluence, cells were detached from the cultured flask by treatment with 0.05% trypsin-EDTA (Gibco), and a suspension of 5 × 10^4 cells/mL of viable cells was seeded in a 96-well microtiter plate (Costar, Washington, DC, USA) and incubated.” left out
Cytotoxicity was assessed by the MTT assay as previously described by Rahman. […] The amount of MTT-formazan is directly proportional to the number of living cells and was determined by measuring the optical density (OD) at 590 nm using a bioassay reader (Bio-Rad). […]
The growth inhibition of cancer cells was evaluated by the sulforhodamine B method. […] The OD was measured at 540 nm using an ELISA reader (Bio-Rad). […]

Series [7] concerns DU-145. Description: Cytotoxicity MTT assay, DU-145 prostate carcinoma. The series is classed as cell-based, human. To be noted: Homo sapiens; DU-145, MTT, 72 h; read-out: Cytotoxic activity CC50. As for the experimental part:
as §1

In series [8] the test system is SiHa. Description: Antiproliferative sulforhodamine B assay, SiHa. It counts as cell-based, human. Conditions: Homo sapiens; SiHa, SRB, 48 h. As for the experimental part:
as §2, §3, §4

The test system of series [9] is KB. As to the kind of experiment: Cytotoxicity MTT assay, KB nasopharynx carcinoma. It counts as cell-based, human. To be noted: Homo sapiens; KB, MTT, 72 h; read-out: Cytotoxic activity CC50. How it is done:
as §1

For series [10], the system named is Hep-2. Description: Antiproliferative sulforhodamine B assay, Hep-2. Conditions: Homo sapiens; Hep-2, SRB, 48 h. It counts as cell-based, human. How it is done:
as §2, §3, §4

Series [11] relates to DU-145. Description: Antiproliferative sulforhodamine B assay, DU-145. It counts as cell-based, human. How it is done: as §2, §3, §4
Series [12] is described as follows: Cytotoxicity MTT assay, MDCK normal cell line. It counts as cell-based. Conditions: dog, MDCK cells (normal cell line), read-out: Cytotoxic activity CC50. As for the experimental part:
as §1

The subject of series [13] is SiHa. Description: Cytotoxicity MTT assay, SiHa cervix squamous carcinoma. It counts as cell-based, human. Conditions: Homo sapiens; SiHa, MTT, 72 h; read-out: Cytotoxic activity CC50. As for the experimental part:
as §1

Series [14] is described as follows: Cytotoxicity MTT assay, Hep-2 laryngeal carcinoma. The series is classed as cell-based, human. Conditions: dog MDCK normal cells versus Hep-2 laryngeal carcinoma cells; CC50 MDCK normal cells / Hep-2; read-out: Selectivity index (SI) of cytotoxic activity. How it is done: as §1
The next series has as its system Trypanosoma cruzi. Also noted: method as in PMID 17291734. To be noted: cited from earlier work.
Series [15] in a line: Cytotoxicity MTT assay, PC-3 prostate adenocarcinoma. The series is classed as cell-based, human. Conditions: human, MDCK normal cells versus PC-3 prostate adenocarcinoma cells; CC50 MDCK normal cells / PC-3; read-out: Selectivity index (SI) of cytotoxic activity. As for the experimental part: as §1
A short description of series [16]: Cytotoxicity MTT assay, DU-145 prostate carcinoma. To be noted: human, MDCK normal cells versus DU-145 prostate carcinoma cells; CC50 MDCK normal cells / DU-145; read-out: Selectivity index (SI) of cytotoxic activity. It counts as cell-based, human. As for the experimental part: as §1
The nature of series [17]: Cytotoxicity MTT assay, KB nasopharynx carcinoma. The series is classed as cell-based, human. To be noted: human, MDCK normal cells versus KB nasopharynx carcinoma cells; CC50 MDCK normal cells / KB; read-out: Selectivity index (SI) of cytotoxic activity. How it is done: as §1
The next series deals with Leishmania mexicana. The arrangement: method as in PMID 17291734. To be noted: cited from earlier work.
Where [18] appears, read: Homo sapiens, DU-145, SRB, 48 h.

SMILES strings stand for the structures. pIC50: −log10 of the molar value. “And” between values parts separate entries of the source, which are not always exact repeats. Equal values may be shown once.

As for `CC(C)=CCc1c(O)c(C(=O)/C=C/c2ccccc2)cc2c1OC(C)(C)C=C2` [Compound 1, spinochalcone C], the cytotoxic concentration (CC50) with HeLa [1], in the series with Hep-2 [3], in the series on PC-3 [5], in the series with DU-145 [7], in the series with KB [9] and in the series on SiHa [13] was more than 100 mg/L throughout. For the same compound, the pIC50 in the series with PC-3 [2], in the series with MDCK, in the series with HeLa [4], in the series with KB [6], in the series with SiHa [8] and in the series with Hep-2 [10] was less than 4.00 throughout. For the same compound, in the series on DU-145 [11] (setting [18]), the pIC50 (commonly the negative decadic logarithm of the IC50, by convention in mol/L) is less than 4.00. Also, in the series on tested cell lines, the “Active concentration on tested cell lines (no activity to the maximum concentration)” value was more than 100 µM. Besides, in series [12], the CC50 – broadly, the concentration giving 50% cytotoxicity – at 72 h is more than 100 mg/L.
As for `CC(C)=CCc1c(O)ccc(C(=O)/C=C/c2ccccc2)c1O` [Compound 3, isocordoin], the CC50 in the series with HeLa [1] is more than 100 mg/L; in the series with Hep-2 [3], 6.1 µg/mL and 20 µM; with PC-3 [5], 18.4 µg/mL and 60.3 µM; in the series with DU-145 [7] it was 7 µg/mL and 23.1 µM; with KB [9], 11 µg/mL and 27 µM; in the series on SiHa [13], more than 100 mg/L. Also, the pIC50 with PC-3 [2], in the series with HeLa [4], with KB [6], in the series with SiHa [8] and in the series with Hep-2 [10] was less than 4.00 throughout. The selectivity ratio at 72 h in series [14] was found to be 0.7; in [15] it was 0.23; in [16], 0.6; in series [17], 0.5. Further, the 50% inhibitory concentration (IC50) (usually the point on the concentration scale where inhibition reaches its midpoint) is 18.4 µg/mL and 60.8 µM in the series with MDCK; 13.3 µg/mL and 43.8 µM in the series on DU-145 [11] (setting [18]). In addition, the “Activity against the parasite Trypanosoma cruzi” value in the series with Trypanosoma cruzi is on record as “active”. The “Selectivity index (SI) of antiproliferative activity” value in the series with DU-145 [11] (IC50 MDCK normal cells / DU-145) came out at 1.4. Further, the CC50 at 72 h in series [12] is 4.2 µg/mL and 14 µM. Further, the “Activity against the parasite Leishmania mexicana” value in the series on Leishmania mexicana is “active”.
